The values that follow come from US5565483A, “3-substituted oxindole derivatives as potassium channel modulators” (Bristol-Myers Squibb Company, priority 1995, dated 1996).

The first experiment deals with cortical infarct volume after MCAO. As to the kind of experiment: Permanent middle cerebral artery occlusion (MCAO) focal stroke model. Conditions: intraparitoneally 10 mg/kg, single bolus 2 hours after MCAO; infarct measured 24 hours after MCAO; vs vehicle-treated control. It is filed as in vivo, spontaneously hypertensive rat. The text has this: To determine the ability of these compounds to reduce cell loss resulting from neuronal ischemia, a standard rodent model of permanent focal ischemia, involving occlusion of the middle cerebral artery in the spontaneously hypertensive rat (MCAO model) was employed [Tamura, A., et al., Journal of Cerebral Blood Flow and Metabolism, Volume 1, 53-60, (1981)].
Selected compounds have been evaluated in the focal stroke model involving permanent middle cerebral artery occlusion (MCAO) in the spontaneously hypertensive rat. This procedure results in a reliably large neocortical infarct volume that is measured by means of vital dye exclusion in serial slices through the brain 24 hours after MCAO. In the present test, compounds were administered using an i.v. or […]. route of administration at two hours after occlusion.
For the compound `O=C1Nc2cc(C(F)(F)F)ccc2C1c1cc(Cl)ccc1O` (racemic) [Example 4, (±)-3-(5-Chloro-2-hydroxyphenyl)-1,3-dihydro-6-(trifluoromethyl)-2H-indol-2-one], the “reduction of cortical infarct volume” value was “about 26%”.

Staying with this experiment, now noted: intravenously 0.03 mg/kg, single bolus 2 hours after MCAO; infarct measured 24 hours after MCAO; vs vehicle-treated control.
For `O=C1Nc2cc(C(F)(F)F)ccc2C1c1cc(Cl)ccc1O` (racemic) [Example 4, (±)-3-(5-Chloro-2-hydroxyphenyl)-1,3-dihydro-6-(trifluoromethyl)-2H-indol-2-one], the “reduction of cortical infarct volume” value was “about 18%”.

For the next experiment, the system named is cloned mammalian (mSIo or hSIo) BK channels. As to the kind of experiment: Increase of cloned BK-mediated outward current in Xenopus oocytes, two-electrode voltage clamp. In kind it is cell-based. Conditions: at 20 μM; at least 5 oocytes; mSIo or hSIo expressed in Xenopus oocytes. The method, then:
The ability of compounds described in the present invention to open BK channels and increase whole-cell outward (K^+) BK-mediated currents was assessed under voltage-clamp conditions by determining their ability to increase cloned mammalian (mSIo or hSIo) BK--mediated outward current heterologously expressed in Xenopus oocytes [Butler, A., et al., Science, 261:221-224 (1993); and Dworetzky, S. I., etal., Mol. Brain Res., 27: 189-193 (1994)]. The two BK constructs employed represent nearly structurally identical homologous proteins, and have proven to be pharmacologically identical in our tests. To isolate BK current from native (background, non-BK) current, the specific and potent BK channel-blocking toxin iberiotoxin (IBTX) [Galvez, A., et al., J. Biol. Chem. 265:11083-11090 (1990)] was employed at a supramaximal concentration (50 nM). The relative contribution of BK channels current to total outward current was determined by subtraction of the current remaining in the presence of IBTX (non-BK current) from the current profiles obtained in all other experimental conditions (control, drug, and wash). […] All compounds were tested in at least 5 oocytes and are reported at the single concentration of 20 uM; the effect of the selected compounds of Formula I on BK current was expressed as the percent of control IBTX-sensitive current and is listed in Table I. Recordings were accomplished using standard two-electrode voltage clamp techniques [Stuhmer, W., et al., Methods in Enzymology, Vol. 207:319-339 (1992)]; voltage-clamp protocols consisted of 500-750 ms duration step depolarizations from a holding potential of -60 mV to +140 mV in 20 mV steps. The experimental media (modified Barth's solution) consisted of (in mM): NaCl (88), NaHCO3 (2.4), KCl (1.0), HEPES (10), MgSO4 (0.82), Ca(NO3)2 (0.33), CaCl2 (0.41); pH 7.5.
`COc1ccc(Cl)cc1C1(O)C(=O)Nc2cc(C(F)(F)F)ccc21` (racemic) [Example 1, (±)-3-(5-Chloro-2-methoxyphenyl)-1,3-dihydro-3-hydroxy-6-(trifluoromethyl)-2H-indol-2-one]: the “BK Current, percent of control IBTX-sensitive current” value (from here on “BK Current, percent”) is recorded as “+ (+ = 100-125%)”.

As to `O=C1Nc2cc(C(F)(F)F)ccc2C1(O)c1cc(Cl)ccc1O` (racemic) [Example 3, (±)-3-(5-Chloro-2-hydroxyphenyl)-1,3-dihydro-3-hydroxy-6-(trifluoromethyl)-2H-indol-2-one], the “BK Current, percent” value is listed as “++ (++ = 125-150%)”. Take `O=C1Nc2cc(C(F)(F)F)ccc2C1c1cc(Cl)ccc1O` (racemic) [Example 4, (±)-3-(5-Chloro-2-hydroxyphenyl)-1,3-dihydro-6-(trifluoromethyl)-2H-indol-2-one]: the “BK Current, percent” value is on record as “+++ (+++ = >150%)”. The same measure, in the same setting: then `O=C1Nc2cc(Cl)cc(Cl)c2C1(O)c1cc(Cl)ccc1O` (racemic) [Example 6, (±)-3-(5-Chloro-2-dhydroxyphenyl)-4,6-dichloro-1,3-dihydro-3-hydroxy-2-H-indol-2-one], with “+ (+ = 100-125%)”.

On to `O=C1Nc2c(C(F)(F)F)cccc2C1(O)c1cc(Cl)ccc1O` (racemic) [Example 7, (±)-3-(5-Chloro-2-hydroxyphenyl)-1,3-dihydro-3-hydroxy-7-(trifluoromethyl)-2H-indol-2-one], for which the “BK Current, percent” value was “+ (+ = 100-125%)”.

For `O=C1Nc2cc(C(F)(F)F)ccc2C1(O)c1cc(C(F)(F)F)ccc1O` (racemic) [Example 9, (±)-1,3-Dihydro-3-hydroxy-3-[2-hydroxy-5-(trifluoromethyl)phenyl]-6-(trifluoromethyl)-2H-indol-2-one], the “BK Current, percent” value was “++ (++ = 125-150%)”. The same measure, in the same setting: the result for `COc1ccc(Cl)cc1C1(F)C(=O)Nc2cc(C(F)(F)F)ccc21` (racemic) [Example 14, (±)-3-(5-Chloro-2-methoxyphenyl)-1,3-dihydro-3-fluoro-6-(trifluoromethyl)-2H-indol-2-one] reads “++ (++ = 125-150%)”.

`O=C1Nc2c(ccc3ccccc23)C1(O)c1cc(Cl)ccc1O` (racemic) [Example 15, (±)-3-(5-Chloro-2-hydroxyphenyl)-1,3-dihydro-3-hydroxy-2H-benz[g]indol-2-one]: the “BK Current, percent” value is “+++ (+++ = >150%)”.

`O=C1Nc2cc(-c3ccccc3)ccc2C1c1cc(Cl)ccc1O` (racemic) [Example 16, (±)-3-(5-Chloro-2-hydroxyphenyl)-1,3-dihydro-6-phenyl-2H-indol-2-one]: the “BK Current, percent” value is on record as “+++ (+++ = >150%)”.

`O=C1Nc2ccc3ccccc3c2C1c1cc(Cl)ccc1O` (racemic) [Example 22, (±)-3-(5--Chloro-2-hydroxyphenyl)-1,3-dihydro-2H-benz[e]indol-2-one]: the “BK Current, percent” value is given as “+++ (+++ = >150%)”.

For the compound `COc1ccc(Cl)cc1C1(F)C(=O)Nc2ccc(F)cc21` (racemic) [Example 25, (±)-3-(5-Chloro-2-methoxyphenyl)-1,3-dihydro-3,5-difluoro-2H-indol-2-one], the “BK Current, percent” value was “+ (+ = 100-125%)”. On the same count and under the same terms, the result for `O=C1Nc2cc(Cl)cc(Cl)c2C1c1cc(Cl)ccc1O` (racemic) [Example 31, (±)-3-(5-Chloro-2-hydroxyphenyl)-4,6-dichloro-1,3-dihydro-2H-indol-2-one] reads “+ (+ = 100-125%)”; that for `O=C1Nc2cc(I)ccc2C1c1cc(Cl)ccc1O` (racemic) [Example 33, (±)-3-(5-Chloro-2-hydroxyphenyl)-1,3-dihydro-6-iodo-2H-indol-2-one], “+++ (+++ = >150%)”. Same read-out and setting: then `O=C1Nc2cc(C(F)(F)F)ccc2C1(O)c1cc(Cl)ccc1O` (single isomer, unassigned; (-)) [Example 13, (-)-3-(5-Chloro-2-hydroxyphenyl)-1,3-dihydro-3-hydroxy-6-(trifluoromethyl)-2H-indol-2-one], with “++ (++ = 125-150%)”.
